Measured values published in article PMC9907135 (Proceedings of the National Academy of Sciences of the …, 2022).
Bridge positions count the residues as written; N and C are the ends. Square brackets hold non-standard residues; d marks the D form. Peptide text beside a SMILES is read from it. * marks the point of attachment. 5FAM = O=C1OC2(c3ccc(O)cc3Oc3cc(O)ccc32)c2ccc(C(=O)*)cc21; R8 = C=CCCCCCC[C@@](C)(N)C(=O)O; S5 = C=CCCC[C@](C)(N)C(=O)O; Nle = CCCC[C@H](N)C(=O)O

Legend:
PD-L1:PD-1 [1] = biological target: T1, PD-L1:PD-1 (Homo sapiens, UniProt Q9NZQ7); settings: competition ELISA; n = 2
Target sequence in this assay (Q9NZQ7 19-238 limits assumed): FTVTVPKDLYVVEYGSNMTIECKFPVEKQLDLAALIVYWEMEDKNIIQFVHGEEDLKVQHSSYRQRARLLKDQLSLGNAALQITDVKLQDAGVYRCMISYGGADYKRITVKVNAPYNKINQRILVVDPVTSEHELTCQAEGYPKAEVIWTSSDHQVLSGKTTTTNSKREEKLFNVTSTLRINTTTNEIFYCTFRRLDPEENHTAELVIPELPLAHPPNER
PD-L1:PD-1 [2] = biological target: T1, PD-L1:PD-1; settings: SPR ABA competition, 10 μM compound, 400 nM PD-1
Target sequence in this assay (Q9NZQ7 18-239): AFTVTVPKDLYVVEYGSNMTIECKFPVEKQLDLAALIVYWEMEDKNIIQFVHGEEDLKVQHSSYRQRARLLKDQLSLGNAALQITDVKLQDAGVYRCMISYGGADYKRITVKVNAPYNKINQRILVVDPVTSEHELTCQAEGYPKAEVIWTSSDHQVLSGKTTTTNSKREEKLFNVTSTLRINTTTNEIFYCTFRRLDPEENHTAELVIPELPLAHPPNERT

PD-L1 = PD-L1 (Homo sapiens, UniProt Q9NZQ7); settings: TR-FRET; n = 3 for FP peptides, n = 2 for BMS-1001
Chain of PD-L1 (Q9NZQ7 18-239): as above

RNF31 UBA domain = RNF31 UBA domain (Homo sapiens, UniProt Q96EP0); experiment: biochemical
Chain of RNF31 UBA domain (Q96EP0 480-639): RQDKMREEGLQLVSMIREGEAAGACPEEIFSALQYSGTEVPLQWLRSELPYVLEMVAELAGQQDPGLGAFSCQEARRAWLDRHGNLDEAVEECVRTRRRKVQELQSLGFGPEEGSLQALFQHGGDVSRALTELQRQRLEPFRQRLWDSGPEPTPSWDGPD

Expi293 cells [3] = settings: percentage of Helicons in cells after treatment and wash; Expi293 cells 1x10^6 cells/mL, 22 hours, 37°C; washed twice with DPBS; MS quantitation, single-point calibration; n=2, mean ± SD
Expi293 cells [4] = settings: luminescence at Tfinal (22 hours) divided by Tinitial, measure of ATP levels, reflective of cell health

Structure (SMILES)	Helicon in cells ± SD (%) (Expi293 cells [3])	CellTiter-Glo fold change ± SD (Expi293 cells [4])	also measured
Cc1cc(CN[C@H](CO)C(=O)O)c(OCc2cccc(C#N)c2)cc1OCc1cccc(-c2ccc3c(c2)OCCO3)c1C [BMS-1001]			Inhibition of PD-L1:PD-1 binding (PD-L1:PD-1 [1]): inhibits PD-L1:PD-1 binding; Competition with PD-1 for binding to PD-L1 (PD-L1:PD-1 [2]): compete more potently; PD-L1 dimerization in solution (PD-L1): clear evidence of PD-L1 dimerization
CC[C@H](C)[C@H](NC(=O)[C@H](C)NC(=O)[C@@H]1CSCC(=O)Nc2ccc(cc2)NC(=O)CSC[C@H](NC(=O)[C@H](CCCNC(=N)N)NC(=O)[C@H](CCC(N)=O)NC(=O)[C@H](CCSC)NC(=O)[C@H](C)NC(=O)[C@@H]2CCCN2C(=O)[C@H](CC(=O)O)NC(C)=O)C(=O)N[C@@H](Cc2ccccc2)C(=O)N[C@@H](CO)C(=O)N[C@@H](C)C(=O)N[C@@H](C)C(=O)N[C@@H](C(C)C)C(=O)N[C@@H](Cc2ccc(O)cc2)C(=O)N1)C(=O)N[C@@H](CO)C(N)=O [FP06655]			koff (RNF31 UBA domain; read-out: RNF31 UBA Binding koff): 0.052 s⁻¹; kon (RNF31 UBA domain; read-out: RNF31 UBA Binding kon): 1.4e+06 M⁻¹ s⁻¹
CC[C@H](C)[C@H](NC(=O)[C@H](Cc1ccc(O)cc1)NC(=O)[C@H](CCC(N)=O)NC(=O)[C@]1(C)CCCC=CCCCCCC[C@@](C)(NC(=O)[C@H](Cc2c[nH]cn2)NC(=O)[C@@H](NC(=O)[C@@H](NC(C)=O)[C@@H](C)CC)[C@@H](C)CC)C(=O)N[C@@H](Cc2ccc(O)cc2)C(=O)N[C@@H](CCC(=O)O)C(=O)N[C@@H](C)C(=O)N[C@@H](C)C(=O)N[C@@H](Cc2ccccc2)C(=O)N[C@@H](Cc2ccccc2)C(=O)N1)C(N)=O [FP08012] (Ac-IIH[R8]YEAAFF[S5]QYI-NH2; staple 4-11)	5.4 ± 0.9	1.1 ± 0.04	
CCCC[C@H](NC(=O)[C@H](Cc1ccc(O)cc1)NC(=O)[C@H](CCC(N)=O)NC(=O)[C@]1(C)CCCC=CCCCCCC[C@@](C)(NC(=O)[C@H](CCC(=O)O)NC(=O)[C@H](CC(C)C)NC(=O)[C@@H](NC(C)=O)[C@@H](C)CC)C(=O)N[C@@H](Cc2ccc(O)cc2)C(=O)N[C@@H](CCC(=O)O)C(=O)N[C@@H](C)C(=O)N[C@@H](C)C(=O)N[C@@H](Cc2ccccc2)C(=O)N[C@@H](CCC(=O)O)C(=O)N1)C(N)=O [FP08017] (Ac-ILE[R8]YEAAFE[S5]QY[Nle]-NH2; staple 4-11)	0.6 ± 0.1	1.2 ± 0.01	
CCCC[C@H](NC(=O)[C@H](Cc1ccc(O)cc1)NC(=O)[C@H](CCC(N)=O)NC(=O)[C@]1(C)CCCC=CCCCCCC[C@@](C)(NC(=O)[C@H](CCC(=O)O)NC(=O)[C@H](CC(C)C)NC(=O)[C@@H](NC(C)=O)[C@@H](C)CC)C(=O)N[C@@H](Cc2ccc(O)cc2)C(=O)N[C@@H](CCC(=O)O)C(=O)N[C@@H](C)C(=O)N[C@@H](C)C(=O)N[C@@H](Cc2ccccc2)C(=O)N[C@@H](CCC(=O)O)C(=O)N1)C(N)=O [FP08018] (Ac-ILE[R8]YEAAFE[S5]QY[Nle]-NH2; staple 4-11)	1.0 ± 0.1	1.1 ± 0.05	
CCCC[C@H](NC(=O)[C@@H](NC(C)=O)[C@@H](C)CC)C(=O)N[C@@H](C)C(=O)N[C@]1(C)CCCCCCC=CCCC[C@@](C)(C(=O)N[C@@H](CCC(N)=O)C(=O)N[C@@H](Cc2ccc(O)cc2)C(=O)N[C@@H](CC(N)=O)C(N)=O)NC(=O)[C@H](Cc2c[nH]c3ccccc23)NC(=O)[C@H](Cc2ccccc2)NC(=O)[C@H](C)NC(=O)[C@H](C)NC(=O)[C@H](CCC(N)=O)NC(=O)[C@H](Cc2ccc(O)cc2)NC1=O [FP08023] (Ac-I[Nle]A[R8]YQAAFW[S5]QYN-NH2; staple 4-11)	3.0 ± 0.3	1.2 ± 0.03	
CCCC[C@H](NC(=O)[C@@H](NC(C)=O)[C@@H](C)CC)C(=O)N[C@@H](C)C(=O)N[C@]1(C)CCCCCCC=CCCC[C@@](C)(C(=O)N[C@@H](CCC(N)=O)C(=O)N[C@@H](Cc2ccc(O)cc2)C(=O)N[C@@H](CC(N)=O)C(N)=O)NC(=O)[C@H](Cc2c[nH]c3ccccc23)NC(=O)[C@H](Cc2ccccc2)NC(=O)[C@H](C)NC(=O)[C@H](C)NC(=O)[C@H](CCC(N)=O)NC(=O)[C@H](Cc2ccc(O)cc2)NC1=O [FP08024] (Ac-I[Nle]A[R8]YQAAFW[S5]QYN-NH2; staple 4-11)	6.5 ± 0.5	1.2 ± 0.00	
CC(C)C[C@H](NC(=O)[C@H](C)NC(=O)CNC(=O)[C@H](CCCCN)NC(=O)[C@H](CCCNC(=N)N)NC(=O)[C@H](C)NC(=O)[C@H](Cc1ccccc1)NC(=O)[C@H](CCCNC(=N)N)NC(=O)[C@H](CCC(N)=O)NC(=O)c1ccc2c(c1)C(=O)OC21c2ccc(O)cc2Oc2cc(O)ccc21)C(=O)N[C@@H](CCCNC(=N)N)C(=O)N[C@@H](CCC(N)=O)C(=O)N[C@@H](CCCCN)C(=O)N[C@@H](CC(N)=O)C(=O)N[C@H](C(N)=O)C(C)C [FP47831, reference compound] (5FAM-QRFARKGALRQKNV-NH2)	0.0 ± 0.0	1.1 ± 0.02	
